Reference: ChEMBL document CHEMBL4706477, “Synthesis and Biological Evaluation of Calothrixins B and their Deoxygenated Analogues” (J Med Chem, 2018)
The source made the active and inactive calls. No cut-off for these calls is given here.

Legend:
HEK293 = test: Antiproliferative activity against human HEK293 cells assessed as reduction in cell viability incubated for 48 hrs by sulphorhodamine B assay; format: functional
A549 = test: Antiproliferative activity against human A549 cells assessed as reduction in cell viability incubated for 48 hrs by sulphorhodamine B assay; format: functional
Jurkat = test: cells; conditions: Homo sapiens, 48 h
Description: Antiproliferative activity against human Jurkat cells assessed as reduction in cell viability incubated for 48 hrs by sulphorhodamine B assay

HeLa [1] = test: cells; conditions: Homo sapiens, 48 h
Description: Antiproliferative activity against human HeLa cells assessed as reduction in cell viability incubated for 48 hrs by sulphorhodamine B assay

SiHa = test: cells; conditions: Homo sapiens, 48 h
Description: Antiproliferative activity against human SiHa cells assessed as reduction in cell viability incubated for 48 hrs by sulphorhodamine B assay

MCF7 = test: cells; conditions: Homo sapiens, MCF7, 48 h
Description: Antiproliferative activity against human MCF7 cells assessed as reduction in cell viability incubated for 48 hrs by sulphorhodamine B assay

HCT-116 [2] = test: cells; conditions: Homo sapiens, HCT-116, 48 h
Description: Antiproliferative activity against human HCT-116 cells assessed as reduction in cell viability incubated for 48 hrs by sulphorhodamine B assay

U-251 = test: cells; conditions: Homo sapiens, U-251, 48 h
Description: Antiproliferative activity against human U-251 cells assessed as reduction in cell viability incubated for 48 hrs by sulphorhodamine B assay

NCI-H460 [3] = test: cells; conditions: Homo sapiens, NCI-H460, 48 h
Description: Antiproliferative activity against human NCI-H460 cells assessed as reduction in cell viability incubated for 48 hrs by sulphorhodamine B assay

MDA-MB-231 = test: cells; conditions: Homo sapiens, MDA-MB-231, 48 h
Description: Antiproliferative activity against human MDA-MB-231 cells assessed as reduction in cell viability incubated for 48 hrs by sulphorhodamine B assay

NCI-H460 [4] = test: Induction of cell death in human NCI-H460 cells at 0.1 uM incubated for 48 hrs by propidium iodide staining based flow cytometry analysis; format: functional
HCT-116 [5] = test: Anticlonogenic activity against human HCT-116 cells assessed as inhibition of colony formation at 0.1 to 5 uM incubated for 48 hrs followed by compound washout with PBS and measured after 14 days by crystal violet staining based analysis; format: functional, cell-based; conditions: dose 0.1-5 µM
HCT-116 [6] = test: Induction of cell cycle arrest in human HCT-116 cells assessed as accumulation of cells at G2/M phase at 5 uM incubated for 20 hrs by propidium iodide staining based flow cytometry analysis; format: functional
HCT-116 [7] = test: Induction of cell cycle arrest in human HCT-116 cells assessed as accumulation of cells at G2/M phase at 5 uM incubated for 3 to 20 hrs in presence of 0.3 uM mitotic inhibitor nocodazole by propidium iodide staining based flow cytometry analysis; format: functional; conditions: time 3-20 hrs
HCT-116 [8] = test: Induction of cell cycle arrest in human HCT-116 cells assessed as accumulation of cells at G2/M phase at 5 uM incubated for 48 hrs by propidium iodide staining based flow cytometry analysis; format: functional
NCI-H460 [9] = test: Induction of cell cycle arrest in human NCI-H460 cells assessed as accumulation of cells at G1 phase incubated for 48 hrs by propidium iodide staining based flow cytometry analysis; format: functional; conditions: dose 0.1-2 µM
[10] = target: T1, DNA topoisomerase 2-alpha (Homo sapiens, UniProt P11388); test: Inhibition of recombinant human topoisomerase 2 assessed as decrease in relaxation of supercoiled pBlue-Script KS(+) plasmid DNA incubated for 30 mins by ethidium bromide staining based gel electrophoresis method
T1 sequence (P11388 whole entry): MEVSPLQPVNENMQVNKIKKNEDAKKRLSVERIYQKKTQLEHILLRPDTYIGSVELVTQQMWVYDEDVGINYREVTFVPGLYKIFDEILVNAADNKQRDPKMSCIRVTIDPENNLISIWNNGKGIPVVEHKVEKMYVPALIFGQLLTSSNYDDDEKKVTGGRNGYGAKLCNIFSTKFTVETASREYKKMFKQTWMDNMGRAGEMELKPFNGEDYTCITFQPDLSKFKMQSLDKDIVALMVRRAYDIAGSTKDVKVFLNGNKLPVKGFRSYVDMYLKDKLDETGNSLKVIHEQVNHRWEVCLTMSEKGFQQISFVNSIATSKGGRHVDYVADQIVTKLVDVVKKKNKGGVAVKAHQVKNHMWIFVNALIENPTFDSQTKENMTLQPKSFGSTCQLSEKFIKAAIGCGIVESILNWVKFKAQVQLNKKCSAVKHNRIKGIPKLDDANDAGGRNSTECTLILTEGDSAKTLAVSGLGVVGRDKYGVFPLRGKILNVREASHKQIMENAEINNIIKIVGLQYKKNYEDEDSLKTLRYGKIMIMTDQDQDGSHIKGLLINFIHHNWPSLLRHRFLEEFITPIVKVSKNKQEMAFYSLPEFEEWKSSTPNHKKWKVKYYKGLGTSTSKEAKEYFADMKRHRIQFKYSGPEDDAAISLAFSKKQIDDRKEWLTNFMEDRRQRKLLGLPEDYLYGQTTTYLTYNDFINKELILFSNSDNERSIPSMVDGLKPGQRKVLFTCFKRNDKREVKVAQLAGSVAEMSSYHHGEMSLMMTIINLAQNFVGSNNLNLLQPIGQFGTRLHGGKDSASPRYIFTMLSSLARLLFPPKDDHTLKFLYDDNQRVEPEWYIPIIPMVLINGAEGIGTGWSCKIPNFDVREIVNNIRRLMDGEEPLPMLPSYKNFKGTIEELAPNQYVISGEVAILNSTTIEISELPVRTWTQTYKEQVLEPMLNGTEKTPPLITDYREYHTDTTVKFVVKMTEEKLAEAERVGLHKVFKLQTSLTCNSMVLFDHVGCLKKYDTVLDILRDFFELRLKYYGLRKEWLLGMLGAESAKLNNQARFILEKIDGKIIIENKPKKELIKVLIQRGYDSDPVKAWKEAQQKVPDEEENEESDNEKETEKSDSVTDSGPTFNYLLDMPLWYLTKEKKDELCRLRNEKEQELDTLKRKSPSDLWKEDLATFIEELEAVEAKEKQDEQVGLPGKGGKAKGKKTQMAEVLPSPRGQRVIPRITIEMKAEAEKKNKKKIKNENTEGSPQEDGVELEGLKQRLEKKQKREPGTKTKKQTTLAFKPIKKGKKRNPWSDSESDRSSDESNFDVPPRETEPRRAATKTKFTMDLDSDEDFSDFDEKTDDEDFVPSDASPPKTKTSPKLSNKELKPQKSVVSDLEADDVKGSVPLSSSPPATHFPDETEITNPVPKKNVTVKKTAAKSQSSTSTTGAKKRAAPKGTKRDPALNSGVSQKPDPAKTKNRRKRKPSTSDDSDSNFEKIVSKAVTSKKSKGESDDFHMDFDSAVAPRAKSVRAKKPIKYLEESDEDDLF

HCT-116 [11] = test: Induction of DNA damage in human HCT-116 cells assessed as tail length at 5 uM incubated for 48 hrs by alkaline Comet assay relative to control; format: functional, cell-based
NCI-H460 [12] = test: Induction of DNA damage in human NCI-H460 cells incubated for 48 hrs by alkaline Comet assay; format: functional, cell-based
NCI-H460 [13] = test: Induction of apoptosis in human NCI-H460 cells assessed as morphological changes at 0.5 uM incubated for 48 hrs by acridine orange/propidium iodide double staining based fluorescence microscopy analysis; format: functional, cell-based
NCI-H460 [14] = test: Induction of apoptosis in human NCI-H460 cells assessed as cleaved PARP levels at 1 uM incubated for 48 hrs by Western blot analysis; format: functional, cell-based
Calf thymus DNA [15] = test: Binding affinity to calf thymus DNA assessed as red shift absorbance measured at 258 nm at 3*10^-5 mol/L by double beam UV-Vis spectroscopic analysis; format: nucleic-acid assay; conditions: Bos taurus
Calf thymus DNA [16] = test: Binding affinity to calf thymus DNA assessed as hyperchromic effect measured at 258 nm at 3*10^-5 mol/L by double beam UV-Vis spectroscopic analysis; format: nucleic-acid assay; conditions: Bos taurus
Calf thymus DNA [17] = test: Binding affinity to calf thymus DNA assessed as hyperchromic effect measured at 302 nm at 3*10^-5 mol/L by double beam UV-Vis spectroscopic analysis; format: nucleic-acid assay; conditions: Bos taurus
[18] = target: T2, DNA topoisomerase 1 (Homo sapiens) (UniProt P11387); test: Inhibition of human topoisomerase 1 assessed as induction of negative supercoiled DNA using relaxed pBlue-Script KS(+) plasmid DNA as substrate measured after 15 mins by agarose gel electrophoresis analysis; conditions: dose 60-100 µM
T2 sequence (whole entry): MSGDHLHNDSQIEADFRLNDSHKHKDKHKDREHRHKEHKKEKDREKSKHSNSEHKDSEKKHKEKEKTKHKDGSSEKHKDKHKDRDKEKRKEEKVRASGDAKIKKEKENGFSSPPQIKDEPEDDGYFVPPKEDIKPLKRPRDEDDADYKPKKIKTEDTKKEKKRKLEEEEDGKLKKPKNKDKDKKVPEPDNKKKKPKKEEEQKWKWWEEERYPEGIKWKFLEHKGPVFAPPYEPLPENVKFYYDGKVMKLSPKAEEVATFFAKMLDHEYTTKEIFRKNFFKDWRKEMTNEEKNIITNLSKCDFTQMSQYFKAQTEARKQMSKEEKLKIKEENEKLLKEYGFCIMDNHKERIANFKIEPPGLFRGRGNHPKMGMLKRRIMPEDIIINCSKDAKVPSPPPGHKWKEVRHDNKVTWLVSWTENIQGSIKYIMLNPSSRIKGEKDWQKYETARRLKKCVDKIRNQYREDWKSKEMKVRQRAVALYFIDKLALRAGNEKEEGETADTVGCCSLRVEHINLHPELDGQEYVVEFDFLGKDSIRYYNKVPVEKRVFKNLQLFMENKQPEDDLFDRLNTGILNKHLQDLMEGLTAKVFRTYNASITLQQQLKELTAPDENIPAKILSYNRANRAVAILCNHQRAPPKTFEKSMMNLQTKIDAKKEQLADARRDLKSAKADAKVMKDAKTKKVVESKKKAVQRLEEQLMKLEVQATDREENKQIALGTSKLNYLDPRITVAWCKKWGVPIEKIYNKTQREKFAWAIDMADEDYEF

physchem [19] = conditions: octanol/water
Description: Octanol/water partition coefficient, log P of the compound

physchem [20] = conditions: octanol/buffer, pH 7.4
Description: Octanol/buffer distribution coefficient, log D of the compound at pH 7.4

Calf thymus DNA [21] = test: Binding affinity to calf thymus DNA assessed as hypochromic effect at 3*10^-5 mol/L by double beam UV-Vis spectroscopic analysis; format: nucleic-acid assay; conditions: Bos taurus
HCT-116 [22] = test: Induction of cell cycle arrest in human HCT-116 cells assessed as accumulation of cells at G1 phase at 5 uM incubated for 3 to 20 hrs in presence of 0.3 uM mitotic inhibitor nocodazole by propidium iodide staining based flow cytometry analysis; format: functional; conditions: time 3-20 hrs
HCT-116 [23] = test: Induction of cell cycle arrest in human HCT-116 cells assessed as accumulation of cells at G1 phase at 5 uM incubated for 48 hrs by propidium iodide staining based flow cytometry analysis; format: functional
HeLa [24] = test: Induction of apoptosis in human HeLa cells assessed as increase in cleaved PARP levels at 10 uM by Western blot analysis; format: functional, cell-based; conditions: time 6-48 hrs, TDE = time-dependent effect
HCT-116 [25] = test: cells; conditions: Homo sapiens, HCT-116, 48 h; remark: listed apart in the source
Description: Antiproliferative activity against human HCT-116 p53-/- cells assessed as reduction in cell viability incubated for 48 hrs by sulphorhodamine B assay

Calf thymus DNA [26] = test: Binding affinity to calf thymus DNA assessed as bathochromic shift absorbance in absorption maximum at 3*10^-5 mol/L by double beam UV-Vis spectroscopic analysis; format: nucleic-acid assay; conditions: Bos taurus
[27] = target: T1, DNA topoisomerase 2-alpha; test: Inhibition of recombinant human topoisomerase 2 assessed as decrease in relaxation of supercoiled pBlue-Script KS(+) plasmid DNA at 40 uM incubated for 30 mins by ethidium bromide staining based gel electrophoresis method relative to control
[28] = target: T1, DNA topoisomerase 2-alpha; test: Inhibition of recombinant human topoisomerase 2 assessed as decrease in relaxation of supercoiled pBlue-Script KS(+) plasmid DNA at 200 uM incubated for 30 mins by ethidium bromide staining based gel electrophoresis method
[29] = target: T1, DNA topoisomerase 2-alpha; test: Inhibition of human topoisomerase 2 assessed as inhibition of etoposide-induced DNA cleavage complex formation by measuring linear DNA formation at 30 to 50 uM incubated for 30 mins using pRYG DNA as substrate by agarose gel electrophoresis analysis; conditions: dose 30-50 µM

Structure (SMILES): c1ccc2c(c1)ncc1cc3[nH]c4ccccc4c3cc12
- GI50 (HEK293): > 4 µM
- GI50 (A549): > 4 µM
- GI50 (Jurkat): > 4 µM
- GI50 (HeLa [1]): 1.4 µM
- GI50 (SiHa): > 4 µM
- GI50 (MCF7): > 4 µM
- GI50 (HCT-116 [2]): > 50 µM
- GI50 (U-251): > 4 µM
- GI50 (NCI-H460 [3]): 10 µM
- GI50 (MDA-MB-231): > 4 µM

Structure (SMILES): Clc1ccc2c(c1)ncc1cc3c(cc12)[nH]c1ccccc13
- GI50 (HEK293): > 4 µM
- GI50 (A549): > 4 µM
- GI50 (Jurkat): > 4 µM
- GI50 (HeLa [1]): 0.43 µM
- GI50 (SiHa): > 4 µM
- GI50 (MCF7): > 4 µM
- GI50 (HCT-116 [2]): 28 µM
- GI50 (U-251): > 4 µM
- GI50 (NCI-H460 [3]): 10 µM
- GI50 (MDA-MB-231): > 4 µM

Structure (SMILES): c1ccc2c(c1)ccc1cc3c(cc12)[nH]c1ccccc13
- GI50 (HEK293): > 4 µM
- GI50 (A549): > 4 µM
- GI50 (Jurkat): > 4 µM
- GI50 (HeLa [1]): > 4 µM
- GI50 (SiHa): > 4 µM
- GI50 (MCF7): > 4 µM
- GI50 (HCT-116 [2]): > 50 µM
- GI50 (U-251): > 4 µM
- GI50 (NCI-H460 [3]): > 50 µM
- GI50 (MDA-MB-231): > 4 µM

Structure (SMILES): Fc1ccc2c(c1)ncc1cc3c(cc12)[nH]c1ccccc13
- Activity (NCI-H460 [4]): Active
- GI50 (HEK293): 0.0052 µM
- GI50 (A549): > 4 µM
- inhibition (HCT-116 [5]): Active
- Activity (HCT-116 [6]): Active
- Activity (HCT-116 [7]): Active
- Activity (HCT-116 [8]): Active
- Activity (NCI-H460 [9]): Dose-dependent effect
- inhibition [10]: inactive
- Activity (HCT-116 [11]): Active
- Activity (NCI-H460 [12]): Dose-dependent effect
- Activity (NCI-H460 [13]): Active
- Activity (NCI-H460 [14]): Active
- Activity (Calf thymus DNA [15]): 14 nm
- Activity (Calf thymus DNA [16]): 46%
- Activity (Calf thymus DNA [17]): 41%
- Activity [18]: Dose-dependent effect
- GI50 (Jurkat): > 4 µM
- GI50 (HeLa [1]): 0.02 µM
- GI50 (SiHa): > 4 µM
- GI50 (MCF7): 0.02 µM
- GI50 (HCT-116 [2]): 6 µM
- GI50 (U-251): > 4 µM
- GI50 (NCI-H460 [3]): 0.001 µM
- GI50 (MDA-MB-231): 0.95 µM
- logP (physchem [19]): 1.91
- logD (physchem [20]): 1.61

Structure (SMILES): Cc1c2cnc3cc(F)ccc3c2cc2[nH]c3ccccc3c12
- GI50 (HEK293): > 4 µM
- GI50 (A549): > 4 µM
- GI50 (Jurkat): > 4 µM
- GI50 (HeLa [1]): 0.05 µM
- GI50 (SiHa): > 4 µM
- GI50 (MCF7): 0.27 µM
- GI50 (HCT-116 [2]): 30 µM
- GI50 (U-251): > 4 µM
- GI50 (NCI-H460 [3]): 0.04 µM
- GI50 (MDA-MB-231): > 4 µM

Structure (SMILES): Nc1nc2cc(Cl)ccc2c2cc3[nH]c4ccccc4c3cc12
- Activity (Calf thymus DNA [21]): 38%
- GI50 (HeLa [1]): 0.53 µM
- GI50 (SiHa): 1.1 µM
- GI50 (MCF7): 0.95 µM
- GI50 (HCT-116 [2]): 1 µM
- GI50 (U-251): 1.2 µM
- GI50 (NCI-H460 [3]): 1.05 µM
- GI50 (MDA-MB-231): 0.9 µM

Structure (SMILES): O=C1c2[nH]c3ccccc3c2C(=O)c2cnc3ccccc3c21 [CALOTHRIXIN B]
- Activity (HCT-116 [22]): inactive
- Activity (HCT-116 [7]): Active
- Activity (HCT-116 [23]): Active
- Activity (HCT-116 [11]): Active
- Activity (HeLa [24]): Tde
- GI50 (Jurkat): > 4 µM
- GI50 (HeLa [1]): 0.47 µM
- GI50 (SiHa): 3.5 µM
- GI50 (MCF7): 0.26 µM
- GI50 (HCT-116 [2]): 0.65 µM
- GI50 (HCT-116 [25]): 2.55 µM
- GI50 (U-251): 2.25 µM
- GI50 (NCI-H460 [3]): > 4 µM
- GI50 (MDA-MB-231): 0.16 µM
- logP (physchem [19]): -1.81
- logD (physchem [20]): -2.11

Structure (SMILES): CN(C)CCCNc1nc2ccccc2c2cc3[nH]c4ccccc4c3cc12
- Activity (Calf thymus DNA [21]): 40%
- Activity (Calf thymus DNA [26]): 15 nm
- GI50 (HeLa [1]): 1.1 µM
- GI50 (SiHa): 1.15 µM
- GI50 (MCF7): 2.75 µM
- GI50 (HCT-116 [2]): 1.75 µM
- GI50 (U-251): 1.35 µM
- GI50 (NCI-H460 [3]): 1.5 µM
- GI50 (MDA-MB-231): 1 µM

Structure (SMILES): Cc1c2cnc3ccccc3c2cc2[nH]c3ccccc3c12
- inhibition [27]: 98%
- GI50 (HEK293): > 4 µM
- GI50 (A549): > 4 µM
- inhibition [28]: 100%
- IC50 [10]: 19.1 µM
- IC90 [10]: 28.8 µM
- inhibition [10]: Dose-dependent effect
- inhibition [29]: Active
- Activity [18]: Dose-dependent effect
- GI50 (Jurkat): > 4 µM
- GI50 (HeLa [1]): 0.36 µM
- GI50 (SiHa): > 4 µM
- GI50 (MCF7): > 4 µM
- GI50 (HCT-116 [2]): 15 µM
- GI50 (U-251): > 4 µM
- GI50 (NCI-H460 [3]): 10.5 µM
- GI50 (MDA-MB-231): > 4 µM
